The source made the active and inactive calls. The calls are words filed in the database; no cut-off is given here.
Tests used:
SK-OV-3 [1] = experiment: Cytotoxicity against human SKOV3 cells under hypoxic condition after 5 days by SRB assay; format: functional, cell-based; settings: SK-OV-3, 120 h
SK-OV-3 [2] = experiment: Cytotoxicity against human SKOV3 cells under aerobic condition after 5 days by SRB assay; format: functional, cell-based; settings: SK-OV-3, 120 h
HT-29 [3] = experiment: Cytotoxicity against human HT-29 cells under aerobic condition after 5 days by SRB assay; format: functional, cell-based; settings: HT-29, 120 h
HT-29 [4] = experiment: Cytotoxicity against human HT-29 cells under hypoxic condition after 5 days by SRB assay; format: functional, cell-based; settings: HT-29, 120 h
HT-29 [5] = experiment: Hypoxic cytotoxicity ratio IC50 for human HT-29 cells under aerobic condition to IC50 for human HT-29 cells under hypoxic condition; format: functional
SK-OV-3 [6] = experiment: Hypoxic cytotoxicity ratio IC50 for human SKOV3 cells under aerobic condition to IC50 for human HT-29 cells under hypoxic condition; format: functional
HT-29 [7] = experiment: Antitumor activity against human HT-29 cells xenografted in CD1 mouse after 18 hrs; format: functional, cell-based
[8] = AUC (0 to 180 mins) in CD1 mouse at 23.7 umol/kg, iv; format: ADME, organism-based; set-up: time < 3 hr, dose 23.7 umol/kg, route intravenous; settings: plasma
[9] = Toxicity against human HT-29 xenografted ip dosed CD1 mouse assessed as maximum tolerated dose; format: organism-based; settings: in vivo, read-out: Activity
[10] = Plasma concentration in CD1 mouse at 23.7 umol/kg, iv after 15 mins; format: ADME, organism-based

Structure (SMILES)	IC50 (SK-OV-3 [1]) [nM]	IC50 (SK-OV-3 [2]) [nM]	IC50 (HT-29 [3]) [nM]	IC50 (HT-29 [4]) [nM]	Ratio IC50 (HT-29 [5])	Ratio IC50 (SK-OV-3 [6])	Activity (HT-29 [7])	AUC(0-t) at 3 h [8] [µM·h]	MTD [9] [µmol/kg]	concentration at […] [10] [nM]
CN(C)CCOc1ccc2[nH]c(C(=O)N3CC(CCl)c4c3cc([N+](=O)[O-])c3cc(S(N)(=O)=O)ccc43)cc2c1 (stereo not given)	28	6900	4600	18	–	–	–	–	–	–
CN(C)CCOc1ccc2[nH]c(C(=O)N3CC(CCl)c4c3cc([N+](=O)[O-])c3cc(S(=O)(=O)NN)ccc43)cc2c1 (stereo not given)	210	33000	31000	160	220	160	–	–	–	–
COc1cc2cc(C(=O)N3CC(CCl)c4c3cc([N+](=O)[O-])c3ccc(C(=O)NCCN(C)C)cc43)[nH]c2c(OC)c1OC (stereo not given)	180	2500	1300	540	2.4	16	–	–	–	–
CN(C)CCOc1ccc2[nH]c(C(=O)N3CC(CCl)c4c3cc([N+](=O)[O-])c3cc(S(=O)(=O)NO)ccc43)cc2c1 (stereo not given)	450	24000	24000	150	160	55	–	–	–	–
CN(C)CCOc1ccc2[nH]c(C(=O)N3CC(CCl)c4c3cc([N+](=O)[O-])c3cc(S(=O)(=O)N(C)C)ccc43)cc2c1 (stereo not given)	210	500	1100	370	3.6	2.4	–	–	–	–
CN(C)CCNS(=O)(=O)c1ccc2c3c(cc([N+](=O)[O-])c2c1)N(C(=O)c1cc2cc(OCCN(C)C)ccc2[nH]1)CC3CCl (stereo not given)	6.6	830	730	9	110	130	inactive	< 0.03	23.7	< 10
COc1cc2cc(C(=O)N3CC(CCl)c4c3cc([N+](=O)[O-])c3cc(C(=O)NCCN(C)C)ccc43)[nH]c2c(OC)c1OC (stereo not given)	140	2000	1500	300	5.9	24	–	–	–	–
CN(C)CCOc1ccc2[nH]c(C(=O)N3CC(CCl)c4c3cc([N+](=O)[O-])c3cc(N)ccc43)cc2c1 (stereo not given)	1300	2500	1800	760	2.4	2	–	–	–	–
CNS(=O)(=O)c1ccc2c3c(cc(N)c2c1)N(C(=O)c1cc2cc(OCCN(C)C)ccc2[nH]1)CC3CCl (stereo not given)	11	20	24	20	–	–	–	–	–	–
CNS(=O)(=O)c1ccc2c3c(cc([N+](=O)[O-])c2c1)N(C(=O)c1cc2cc(OCCN(C)C)ccc2[nH]1)CC3CCl (stereo not given)	120	2600	2700	130	24	21	–	–	–	–

— ChEMBL document CHEMBL1177682, “Hypoxic selectivity and solubility--investigating the properties of A-ring substituted nitro seco-1,2,9,9a-tetrahydrocyclopropa[c]benz[e]indol-4-ones (nitroCBIs) as hypoxia-activated prodrugs for antitumor therapy” (Bioorg Med Chem, 2010)
